# Experimental data: patent US6887879B2, “Pharmaceutical combination of antiviral agents” (priority 1999, dated 2005)
# Like-named read-outs stand apart in the source and are kept apart here.
# Tests used:
# [1] = system: recombinant HXB2-D 10R/46I/63P/82T/84V; assay: microbe, parasite or virus in culture; format: cell-based, HIV-1; conditions: Human immunodeficiency virus 1, HXB2, read-out: EC50 in CBMCs
# Protocol: (§1) HIV-1IIIB laboratory strain and HXB2-D recombinant of HIV-1 were kindly supplied by R. C. Gallo (Institute of Human Virology, Baltimore, Md.). […] The recombinant viruses were generated by transfection of proviral DNA into MT-4 cells with Lipofectamine using the protocol recommended by the manufacturer .(Gibco BRL, Montreal, Canada). […] Stock viruses were prepared from clarified culture supernatants by centrifugation and stored at −70° C. The viruses were titrated by limited dilution with a 4-fold serial dilution.
# recombinant HXB2-D 184V = assay: microbe, parasite or virus in culture; format: cell-based, HIV-1; conditions: Human immunodeficiency virus 1, HXB2, read-out: EC50 in CBMCs
# Protocol: as §1
# [2] = system: recombinant HXB2-D 41L/215Y/184V; assay: microbe, parasite or virus in culture; format: cell-based, HIV-1; conditions: for EC50: Human immunodeficiency virus 1, HXB2, read-out: EC50 in CBMCs
# Protocol: as §1
# [3] = system: recombinant HXB2-D 41L/70R/215Y/219Q; assay: microbe, parasite or virus in culture; format: cell-based, HIV-1; conditions: for sensitivity of AZT resistant virus, in words: 41L, 70R, 215Y and 219Q, CBMCs, also observed in MT-2 cells; for EC50: Human immunodeficiency virus 1, HXB2, read-out: EC50 in CBMCs
# Protocol: as §1
# recombinant HXB2-D 65R = assay: microbe, parasite or virus in culture; format: cell-based, HIV-1; conditions: Human immunodeficiency virus 1, HXB2, read-out: EC50 in CBMCs
# Protocol: as §1
# recombinant HXB2-D 74V = assay: microbe, parasite or virus in culture; format: cell-based, HIV-1; conditions: Human immunodeficiency virus 1, HXB2, read-out: EC50 in CBMCs
# Protocol: as §1
# recombinant HXB2-D WT = assay: microbe, parasite or virus in culture; format: cell-based, HIV-1; conditions: Human immunodeficiency virus 1, HXB2, read-out: EC50 in CBMCs
# Protocol: as §1
# [4] = system: HIV-1 clinical isolate 4246; assay: Antiviral assay, HIV-1 clinical isolate 4246, CBMCs; format: cell-based; conditions: Human immunodeficiency virus 1, read-out: EC50 in CBMCs
# Protocol: as §1
# (§2) The population of HIV-1 in infected individual is quasispecies and the sensitivity of these different viruses found in clinical isolates to antiviral chemotherapy might be quite variable. In addition, HIV-1 isolates obtained from patients receiving long-term antiretroviral therapy might behave differently from cloned virus containing genetically engineered mutations in the RT gene. For these reasons, clinical isolates of HIV-1 from antiviral naive and drug-treated patients were assayed in PHA-stimulated CBMCs for their sensitivity to DXG and DAPD accompanied with approved antiretroviral agents. The genotype of the HIV-1 clinical isolates were determined as described above.
# [5] = system: HIV-1 clinical isolate 4526; assay: Antiviral assay, HIV-1 clinical isolate 4526, CBMCs; format: cell-based; conditions: Human immunodeficiency virus 1, naive
# Protocol: as §1, §2
# [6] = system: HIV-1 clinical isolate 3350; assay: microbe, parasite or virus in culture; format: cell-based; conditions: for EC50: Human immunodeficiency virus 1, read-out: EC50 in CBMCs; for decreased susceptibility compared to the lamivudine and AZT sensitive isolates: isolate 3350, 184V
# Protocol: as §1, §2
# [7] = system: HIV-1 clinical isolate 3887; assay: microbe, parasite or virus in culture; format: cell-based; conditions: Human immunodeficiency virus 1, read-out: EC50 in CBMCs
# Protocol: as §1, §2
# [8] = system: HIV-1 clinical isolate 4205; assay: microbe, parasite or virus in culture; format: cell-based; conditions: for EC50: Human immunodeficiency virus 1, read-out: EC50 in CBMCs; for decreased susceptibility compared to the lamivudine and AZT sensitive isolates: isolate 4205, 184V
# Protocol: as §1, §2
# [9] = system: HIV-1 clinical isolate 4242; assay: microbe, parasite or virus in culture; format: cell-based; conditions: for sensitivity of isolate 4242, in words: 41L/70R/215Y in RT; for EC50: Human immunodeficiency virus 1, read-out: EC50 in CBMCs
# Protocol: as §1, §2
# [10] = system: HIV-1 clinical isolate 4833; assay: microbe, parasite or virus in culture; format: cell-based; conditions: Human immunodeficiency virus 1, therapy Saquinavir (48 weeks), read-out: EC50 in CBMCs
# Protocol: as §1, §2
# [11] = system: HIV-1 clinical isolate 4877; assay: microbe, parasite or virus in culture; format: cell-based; conditions: Human immunodeficiency virus 1, read-out: EC50 in CBMCs
# Protocol: as §1, §2
# [12] = system: HIV-1 clinical isolate 4924; assay: microbe, parasite or virus in culture; format: cell-based; conditions: Human immunodeficiency virus 1, read-out: EC50 in CBMCs
# Protocol: as §1, §2
# [13] = Cytotoxicity, [3H]-thymidine uptake, PBMC; format: cell-based; conditions: human, PHA-stimulated PBMCs
# Protocol: (§3) The cellular toxicity of the BCH compounds were assessed on various cells using [^3H]-thymidine uptake. The various cells, including Molt-4, HT1080, DU-145, HepG 2 and HSF, were plated at a concentration of 1-2×10^3 cells per well (96 well plates). However, PHA-stimulated PBMCs were cultured at a concentration of 4×10^4. After a 24 hr incubation period, 10-fold serial diluted compounds (10^−4 M to 10^−10 M) were added to the culture medium and the cells were further incubated for 72 hrs. [^3H]-thymidine was added during the final 18 hr incubation period. After incubation with the [^3H]-thymidine, the cells were washed once with PBS, treated with trypsin it the cells were adherent, and then resuspended in water (hypotonic lysing of cells) The cellular extract was applied directly to a Tomtec Harvester 96. Using this instrument the extracted DNA is adsorbed onto filters, washed and the incorporated [^3H]-thymidine is then counted.
# [14] = Cytotoxicity, [3H]-thymidine uptake, Molt-4; format: cell-based; conditions: human, Molt-4 cells
# Protocol: as §3
# [15] = Cytotoxicity, [3H]-thymidine uptake, HT-1080; format: cell-based; conditions: human, HT-1080 cells
# Protocol: as §3
# [16] = Cytotoxicity, [3H]-thymidine uptake, HepG2; format: cell-based; conditions: human, HepG2 cells
# Protocol: as §3
# [17] = Cytotoxicity, [3H]-thymidine uptake, DU145; format: cell-based; conditions: human, DU145 cells
# Protocol: as §3
# [18] = Cytotoxicity, [3H]-thymidine uptake, HSF; format: cell-based; conditions: human, human skin fibroblasts (HSF)
# Protocol: as §3
# HIV-1IIIB = assay: Anti-HIV-1 antiviral assay, laboratory strain HIV-1IIIB, RT activity in culture supernatants
# Protocol: Most experiments were performed with a laboratory strain HIV-1III. […] The cells were incubated with virus using the indicated multiplicity of infection (MOI) for 2-3 hrs. The MOI used for each experiment was dependent upon the cell line and virus strain used, and was generally in the range of 0.005 to 0.5. For example, in assays performed using the established cell line MT-2, HIV-1IIIB at an MOI of 0.005 was used to infect cells. The unbound virus was then removed by washing the cells, followed by plating the cells into a 96-well plate. The infected cells were cultured in the presence of a serial concentrations of the test compound for 5-7 days. The anti-HIV-1 efficacy was determined by testing for HIV-1 RT activity in the cell culture supernatants. All assays were performed in duplicate and at least two independent experiments were performed. […] The susceptibilities of the HIV-1 variants to antiretroviral agents are expressed as the mean of the EC50 determinations.
# [19] = system: recombinant HXB2-D 106A/181C; assay: microbe, parasite or virus in culture; format: cell-based, HIV-1; conditions: Human immunodeficiency virus 1, HXB2, read-out: EC50 in CBMCs
# Protocol: as §1
# [20] = system: CBMCs, MT-2, H9, Jurkat and U937; assay: Cytotoxicity, WST-1 cell viability assay; format: cell-based, human; conditions: WST-1, MT-2, H9, Jurkat and U937
# Protocol: The cellular toxicity of the compounds was also tested by WST-1 staining through assessing proliferation of MT-2, H9, Jurkat, U937, and CBMCs. The established cell lines were cultured in RPMI medium in 96-well plates at a density of 5×10^4 cells/well while CBMCs were plated at a concentration of 0.5×10^6/well. A 10-fold serial diluted (10^−4−10^−7 M) compound was added at day zero. At day 4, the cells were passaged by changing half medium containing appropriately diluted compound. The cell activities were assessed at day 7 using the WST-1 reagent (Boehringer Mannheim) following the protocol provided by the supplier.
# [21] = Human immunodeficiency virus 1, H9, read-out: EC50, mean values ± SD
# [22] = Human immunodeficiency virus 1, Jurkat, read-out: EC50, mean values ± SD
# [23] = Human immunodeficiency virus 1, MT2, read-out: EC50, mean values ± SD
# [24] = Human immunodeficiency virus 1, MT4, read-out: EC50, mean values ± SD
# [25] = Human immunodeficiency virus 1, U-937
# [26] = Human immunodeficiency virus 1, read-out: EC50, mean values ± SD
SMILES,EC50 [1],EC50 (recombinant HXB2-D 184V),EC50 [2],"sensitivity of AZT resistant virus, in words [3]",EC50 [3],EC50 (recombinant HXB2-D 65R),EC50 (recombinant HXB2-D 74V),EC50 (recombinant HXB2-D WT),EC50 [4],EC50 [5],EC50 [6],decreased susceptibility compared to the lamivudine and AZT sensitive isolates [6],EC50 [7],EC50 [8],decreased susceptibility compared to the lamivudine and AZT sensitive isolates [8],"sensitivity of isolate 4242, in words [9]",EC50 [9],EC50 [10],EC50 [11],EC50 [12],further results
"Nc1nc(N)c2ncn([C@H]3CO[C@@H](CO)O3)c2n1 [DAPD, (−)- -D-2,6-diaminopurine-1,3-dioxolane]",1370 ± 60 nM,2100 ± 200 nM,2300 ± 50 nM,remained completely sensitive,1250 ± 590 nM,6500 ± 2100 nM,6600 ± 3400 nM,1100 ± 160 nM,410 ± 20 nM,850 ± 71 nM,3300 ± 1200 nM,~5 fold,190 ± 120 nM,4100 ± 350 nM,~5 fold,remained sensitive,880 ± 300 nM,630 ± 380 nM,260 nM,170 nM,CC50 at 72 h [13]: > 500000 nM; CC50 at 72 h [14]: > 500000 nM; CC50 at 72 h [15]: > 500000 nM; CC50 at 72 h [16]: > 500000 nM; CC50 at 72 h [17]: > 500000 nM; CC50 at 72 h [18]: > 500000 nM; EC50 (HIV-1IIIB; [21]): 75 ± 40 nM; EC50 (HIV-1IIIB; [22]): 1370 ± 720 nM; EC50 (HIV-1IIIB; [23]): 540 nM; EC50 (HIV-1IIIB; [24]): 940 ± 28 nM; EC50 (HIV-1IIIB; [25]): 1300 nM; EC50 (HIV-1IIIB; [26]): 970 nM; EC50 fold higher than those for DXG (HIV-1IIIB; various cells): 5-20 fold
"Nc1nc2c(ncn2[C@H]2CO[C@@H](CO)O2)c(=O)[nH]1 [DXG, (−)-β-D-1,3-dioxolane guanine]",120 ± 30 nM,440 ± 70 nM,410 ± 100 nM,remained completely sensitive,240 ± 20 nM,1200 ± 200 nM,1300 ± 800 nM,210 ± 50 nM,120 ± 80 nM,55 ± 27 nM,650 ± 330 nM,~5 fold,180 ± 7 nM,1100 ± 1190 nM,~5 fold,remained sensitive,210 ± 7 nM,170 ± 60 nM,45 nM,20 nM,EC50 [19]: 50 ± 7 nM; decreased sensitivity ([2]; 41L and 215Y combined with 184V): ~2 fold; CC50 at 72 h [13]: > 500000 nM; CC50 at 72 h [14]: > 500000 nM; CC50 at 72 h [15]: > 500000 nM; CC50 at 72 h [16]: > 500000 nM; CC50 at 72 h [17]: > 500000 nM; CC50 at 72 h [18]: ≥ 500000 nM; no toxicity up to (highest concentration tested) [20]: ≥ 100 µM; EC50 (HIV-1IIIB; [21]): 60 ± 50 nM; EC50 (HIV-1IIIB; [22]): 340 ± 140 nM; EC50 (HIV-1IIIB; [23]): 85 nM; EC50 (HIV-1IIIB; [24]): 51 ± 9 nM; EC50 (HIV-1IIIB; [25]): 410 nM; EC50 (HIV-1IIIB; [26]): 46 nM; anti-HIV-1 efficacy fold less than that of AZT (HIV-1IIIB; various cells): 5-10 fold
